Measured values from patent publication US6844354B1, “Agent for prophylaxis and treatment of interstitial pneumonia and pulmonary fibrosis” (Mitsubishi Pharma Corporation, priority 1999, dated 2005).
Marks after values point to notes of the source that are not given here. Values belong to the compound of their own block, whether it stands above or below them.

How the values were obtained:
[1] = system: bleomycin-induced interstitial pneumonia (pulmonary fibrosis) model; assay: Hydroxyproline content in bleomycin-induced interstitial pneumonia (pulmonary fibrosis) model; format: in vivo, mouse; conditions: day 40
Protocol: (§1) Female C57BL/6 mice (about 15 g, 6-week-old) in 4 mice per group (n=4) were intraperitoneally administered with bleomycin 5 times a day every other day (total dose: 200 mg/kg) to prepare a model with bleomycin-induced interstitial pneumonia (pulmonary fibrosis).
(§2) Using the bleomycin-induced interstitial pneumonia (pulmonary fibrosis) model prepared in Experimental Example 1, the effect of the present invention on induced interstitial pneumonia (pulmonary fibrosis) was examined.
(§3) Y-27632 was intraperitoneally administered immediately before bleomycin administration from the first day of bleomycin administration (0th) to day 8 (5th administration), and thereafter until day 40, by way of a single, alternate-day administration. At day 40, the level of fibrosis was checked by hydroxyproline content and tissue staining. The hydroxyproline content was measured according to the report of Tran et al. (Tran et al., J. Clin. Invest., 99: 608-617, 1997). The degree of fibrosis by tissue staining was evaluated by the Aschcroft score (Aschcroft et al., J. Clin. Pathol., 41: 467-70, 1988).
The suppression percentage was calculated based on the bleomycin alone administration group as 0% suppression, and the physiological saline administration group as 100% suppression.

[2] = system: bleomycin-induced interstitial pneumonia (pulmonary fibrosis) model; assay: Pulmonary fibrosis level by tissue staining (Aschcroft score) in bleomycin-induced model; format: in vivo, mouse; conditions: day 40
Protocol: as §1, §2, §3
Y-27632 suppressed the increase of Aschcroft score due to bleomycin administration at the dose of not less than 10 μg/kg (Table 2). In the Table, *:p<0.05, **:p<0.01.

[3] = system: bleomycin-induced interstitial pneumonia (pulmonary fibrosis) model; assay: Number of inflammatory cells in bronchoalveolar lavage fluid (BALF) in bleomycin-induced model; format: in vivo, mouse
Protocol: as §1
Using the pulmonary fibrosis model administered with bleomycin as in Experimental Example 1, the effect of Y-27632 on the number of various inflammatory cells in BALF was examined.
The dose of Y-27632 was administered every other day at the lo dose of 100 μg/kg in the same manner as in Experimental Example 2. BALF was recovered at day 7, day 14, day 21 and day 40 from the start of the bleomycin administration, and the number of total cells, macrophages, lymphocytes and neutrophils was counted (n=5). The number of total cells was measured by a hemocytometer. Smear preparations of the various cells in BALF were prepared by cytospin (Auto Smer CF-12D, Chiyoda seisakusho, Tokyo, Japan), stained with May-Gruenwald and subjected to the counting under a microscope.
The results are shown in mean±SEM (n=5). For the test, (Satical analysis was performed One-way ANOVA test followed by Fisher's least significance test) was performed (*p<0.05; BLM group vs Y-27632 group) (§p<0.05; BLM group vs Normal group) (+p<0.05; Y-27632 group vs Normal group).

[4] = system: Mouse alveolar macrophage-derived cell line (MH-S cell); assay: Cell chemotaxis (Boyden chamber), MH-S cell; format: cell-based; conditions: 2 h, MH-S cells, migration by LPS (1 μg/ml), 37° C. 120 min, n=6, mean±SEM, read-out: IC50 of suppression of migration
Protocol: (§4) Mouse alveolar macrophage-derived cell line (MH-S cell), fibroblast (NIH3T3 cell) and mouse neutrophil were used. Casein was intraperitoneally administered to the mouse and the mouse neutrophil was isolated from ascites thereof after 6 h. The cell chemotaxis was measured by a Boyden chamber (chemotaxicell, KURABO, Japan). The pore size of the filter used was 5 μm for MH-S cell and neutrophil, and 8 μm for NIH3T3 cell. As a chemotactic factor, lipopolysaccharide (LPS, E.coli: B-4, Sigma, St Louis, Mo., USA) was used for MH-S cell, mouse interleukin 1β (IL-1β, Genzyme/techne, USA) was used for neutrophil, and a […] (PDGF-BB, UBI, Lake Placid, USA) was used for NIH3T3 cell. The chemotactic factors were added to a lower layer and Y-27632 were added to a higher layer at various concentrations. The reaction was carried out at 37° C. for 120 min for MH-S cell and NIH3T3 cell and 37° C. for 90 min for neutrophil. After the completion of the reaction, migrated cells were stained with Giemsa (Muto, CO., Ltd, Japan) and the cells were counted. The value is in mean±SEM.

[5] = system: mouse neutrophil; assay: Cell chemotaxis (Boyden chamber), mouse neutrophil; format: cell-based; conditions: 1.5 h, neutrophils, migration by IL-1. (5 ng/ml), 37° C. 90 min, n=6, mean±SEM, read-out: IC50 of suppression of migration
Protocol: as §4

[6] = system: fibroblast (NIH3T3 cell); assay: Cell chemotaxis (Boyden chamber), NIH3T3 cell; format: cell-based; conditions: Mus musculus, 2 h; NIH3T3 cells, migration by PDGF-BB (10 ng/ml), 37° C. 120 min, n=6, mean±SEM; read-out: IC50 of suppression of migration
Protocol: as §4

[7] = system: ROCK-II gene; assay: Expression of ROCK-II gene in the lung, real time quantitative RT-PCR; format: in vivo, mouse
Protocol: as §1
The expression of ROCK-II gene in the lung at 7, 14, 21 and 40 days after the start of the bleomycin administration was measured, and so was the value of an animal free of bleomycin administration. The amount of the expression of the ROCK-II gene was measured according to a real time quantitative RT-PCR method. As the primer, the following sequence was used [forward: CATGGTGCATTGCGACACA (SEQ ID No. 1), reverse: […] (SEQ ID No. 2)]. The amount of expression of the ROCK-II gene was expressed relatively in [(Rock-II m RNA)/(GAPDH m RNA)] using the expression amount of GAPDH (glyceraldehyde-3-phosphate dehydrogenase) gene as a standard. The results are shown in mean±SEM (n=4). For the test, (Satical analysis was performed One-way ANOVA test followed by Fisher's least significance test) was performed.

[8] = Y-27632 alone 1000 μg/kg (no bleomycin)
[9] = Y-27632 100 μg/kg every other day vs BLM group, days 7-40

IC50 [4]: 4.8 ± 2 µM
IC50 [5]: 8.4 ± 2.1 µM
Compound: C[C@@H](N)[C@H]1CC[C@H](C(=O)Nc2ccncc2)CC1 [Y-27632, (+)-trans-4-(1-aminoethyl)-1-(4-pyridylcarbamoyl)cyclohexane 2HCl.1H2O]
Suppression (%) of the increase of hydroxyproline content [1, 8]: 92.1%
Suppression (%) of the increase of hydroxyproline content ([1]; bleomycin + Y-27632 0.01 μg/kg i.p. alternate-day): −10.6%
Suppression (%) of the increase of hydroxyproline content ([1]; bleomycin + Y-27632 0.1 μg/kg i.p. alternate-day): 28.2%
Suppression (%) of the increase of hydroxyproline content ([1]; bleomycin + Y-27632 1 μg/kg i.p. alternate-day): 30.0%
Suppression (%) of the increase of hydroxyproline content ([1]; bleomycin + Y-27632 10 μg/kg i.p. alternate-day): 38.6%
Suppression (%) of the increase of hydroxyproline content ([1]; bleomycin + Y-27632 100 μg/kg i.p. alternate-day): 53.8%
Effect on the increase of hydroxyproline content due to bleomycin administration ([1]; i.p. alternate-day): dose-dependently suppressed
Aschcroft score (mean ± standard error) [2, 8]: 1.33 ± 0.21
Aschcroft score (mean ± standard error) ([2]; bleomycin + Y-27632 0.1 μg/kg): 2.79 ± 0.26
Aschcroft score (mean ± standard error) ([2]; bleomycin + Y-27632 10 μg/kg, p<0.01): 1.85 ± 0.26**
Aschcroft score (mean ± standard error) ([2]; bleomycin + Y-27632 100 μg/kg, p<0.05): 1.98 ± 0.41*
Dose suppressing the increase of Aschcroft score due to bleomycin administration [2]: not less than 10 μg/kg
Number of macrophages in BALF [3, 9]: significantly lower results than BLM group
Number of neutrophils in BALF [3, 9]: significantly lower results than BLM group
Number of total cells in BALF [3, 9]: significantly lower results than BLM group
Lymphocyte counts in BALF ([3]; Y-27632 100 μg/kg every other day, BLM, Y-27632 and Normal groups): did not show a significant difference among 3 groups
IC50 [6]: 1.6 ± 0.5 µM

Compound: bleomycin
Aschcroft score (mean ± standard error) ([2]; bleomycin alone (total dose 200 mg/kg i.p.)): 3.54 ± 0.43
Expression amount of ROCK-II gene (ROCK-II mRNA/GAPDH mRNA) vs bleomycin non-administration group ([7]; day 7 and day 21, bleomycin total dose 200 mg/kg i.p.): significantly high
Increase of expression amount of ROCK-II gene relative to bleomycin non-administration group ([7]; day 21, bleomycin total dose 200 mg/kg i.p.): about 9 times
